ChEMBL document CHEMBL4602659, “β,β-Dimethylacrylshikonin Induces Apoptosis in Melanoma Cell Lines by NOXA Upregulation” (J Nat Prod, 2020)
Active and inactive are the calls of the source. No cut-off for these calls is given here.

Tests used:
MUGMel2 [1] = assay: Cytotoxicity against human MUGMel2 cells harboring NRAS pQ61K mutant assessed as reduction in cell viability after 48 hrs by EZ4U reagent based spectrophotometric method; format: functional; settings: MUGMel2, 48 h
WM793 [2] = assay: Cytotoxicity against human WM793 cells harboring BRAF V600E mutant assessed as reduction in cell viability after 48 hrs by EZ4U reagent based spectrophotometric method; format: functional; settings: WM793, 48 h
MUGMel1 [3] = assay: Induction of apoptosis in human MUGMel1 cells assessed as late apoptotic cells at IC50 concentration after 6 hrs by Annexin V/SYTOX Green based flow cytometric analysis (reference value: 1.04%); format: functional
MUGMel2 [4] = assay: Induction of apoptosis in human MUGMel2 cells assessed as viable cells at IC50 concentration after 6 hrs by Annexin V/SYTOX Green based flow cytometric analysis (reference value: 91.12%); format: functional
MUGMel2 [5] = assay: Induction of apoptosis in human MUGMel2 cells assessed as late apoptotic cells at IC50 concentration after 6 hrs by Annexin V/SYTOX Green based flow cytometric analysis (reference value: 5.69%); format: functional
WM164 [6] = assay: Induction of apoptosis in human WM164 cells assessed as early apoptotic cells at IC50 concentration after 24 hrs by Annexin V/SYTOX Green based flow cytometric analysis (reference value: 2.72%); format: functional
WM164 [7] = assay: Induction of apoptosis in human WM164 cells assessed as late apoptotic cells at IC50 concentration after 24 hrs by Annexin V/SYTOX Green based flow cytometric analysis (reference value: 1.81%); format: functional
WM793 [8] = assay: Induction of apoptosis in human WM793 cells assessed as viable cells at IC50 concentration after 24 hrs by Annexin V/SYTOX Green based flow cytometric analysis (reference value: 96.52%); format: functional
WM793 [9] = assay: Induction of apoptosis in human WM793 cells assessed as early apoptotic cells at IC50 concentration after 24 hrs by Annexin V/SYTOX Green based flow cytometric analysis (reference value: 2.64%); format: functional
B16-F0 = assay: Cytotoxicity against mouse B16F0 cells assessed as reduction in cell viability after 48 hrs by MTT assay; format: functional, cell-based; settings: B16F0, 48 h
WM793 [10] = assay: Induction of apoptosis in human WM793 cells assessed as increase in caspase -3 activity at IC50 concentration after 24 hrs by Alexa Fluor 647 antibody based flow cytometric analysis; format: functional, cell-based
MUGMel1 [11] = assay: Induction of cell cycle arrest in human MUGMel1 cells assessed as increase in S phase at IC50 concentration after 24 to 48 hrs by propidium iodide staining based flow cytometric analysis; format: functional
WM164 [12] = assay: Induction of apoptosis in human WM164 cells assessed as up regulation of PMAIP1 at IC50 concentration after 24 hrs by mRNA sequencing method relative to control; format: functional
MUGMel1 [13] = assay: Induction of apoptosis in human MUGMel1 cells assessed as up regulation of NOXA at IC50 concentration after 6 to 24 hrs by RT-qPCR analysis relative to control; format: functional
SBcl2 [14] = assay: Antitumour activity against human SBcl2 cells xenografted in NU(NCr)-Foxn1 mouse assessed as increase in necrotic cells at 2 ug/g administered for three consecutive days with 1 day interval for four cycle by hematoxylin and eosin staining based microscopic analysis; format: functional
WM164 [15] = assay: Antitumour activity against human WM164 cells xenografted in NU(NCr)-Foxn1 mouse assessed as increase in necrotic cells at 1 to 4 ug/g administered for three consecutive days with 1 day interval for four cycle by hematoxylin and eosin staining based microscopic analysis; format: functional
WM164 [16] = assay: Antitumour activity against human WM164 cells xenografted in NU(NCr)-Foxn1 mouse assessed as increase in caspase -activity at 1 to 4 ug/g administered for three consecutive days with 1 day interval for four cycle by hematoxylin and eosin staining based microscopic analysis; format: functional, cell-based
SBcl2 [17] = assay: Antitumour activity against human SBcl2 cells xenografted in NU(NCr)-Foxn1 mouse assessed as increase in fibrosis at 2 ug/g administered for three consecutive days with 1 day interval for four cycle by hematoxylin and eosin staining based microscopic analysis; format: functional, cell-based
WM164 [18] = assay: Induction of apoptosis in human WM164 cells assessed as up regulation of NOXA protein expression at IC50 concentration after 24 hrs by Western blot analysis; format: functional, cell-based
MUGMel1 [19] = assay: Induction of apoptosis in human MUGMel1 cells assessed as up regulation of NOXA protein expression at IC50 concentration after 24 hrs by Western blot analysis; format: functional, cell-based
WM164 [20] = assay: Induction of apoptosis in human WM164 cells assessed as effect on BAD mRNA expression at IC50 concentration after 6 to 24 hrs by RT-qPCR analysis; format: functional, cell-based
SBcl2 [21] = assay: Induction of apoptosis in human SBcl2 cells assessed as effect on BAX mRNA expression at IC50 concentration after 6 to 24 hrs by RT-qPCR analysis; format: functional, cell-based
MUGMel1 [22] = assay: Induction of apoptosis in human MUGMel1 cells assessed as effect on BAX mRNA expression at IC50 concentration after 6 to 24 hrs by RT-qPCR analysis; format: functional, cell-based
WM164 [23] = assay: Induction of apoptosis in human WM164 cells assessed as up regulation of PUMA at IC50 concentration after 6 to 24 hrs by RT-qPCR analysis; format: functional, cell-based
SBcl2 [24] = assay: Induction of apoptosis in human SBcl2 cells assessed as up regulation of BCL2 at IC50 concentration after 6 to 24 hrs by RT-qPCR analysis; format: functional, cell-based
SBcl2 [25] = assay: Induction of apoptosis in human SBcl2 cells treated with scrambled si-RNA assessed as caspase -activity at IC50 concentration after 24 hrs by Western blot analysis; format: functional, cell-based
WM164 [26] = assay: Induction of apoptosis in human WM164 cells treated with scrambled si-RNA assessed as up regulation of NOXA protein expression at IC50 concentration after 24 hrs by Western blot analysis; format: functional, cell-based
WM793 [27] = assay: Induction of apoptosis in human WM793 cells assessed as effect on BAX protein expression at IC50 concentration after 24 hrs by Western blot analysis; format: functional, cell-based
MUGMel2 [28] = assay: Induction of apoptosis in human MUGMel2 cells assessed as effect on PUMA protein expression at IC50 concentration after 24 hrs by Western blot analysis; format: functional, cell-based
MUGMel2 [29] = assay: Induction of apoptosis in human MUGMel2 cells assessed as effect on BAX protein expression at IC50 concentration after 24 hrs by Western blot analysis; format: functional, cell-based
MUGMel1 [30] = assay: Induction of apoptosis in human MUGMel1 cells assessed as effect on BAX protein expression at IC50 concentration after 24 hrs by Western blot analysis; format: functional, cell-based
WM164 [31] = assay: Antitumour activity against human WM164 cells xenografted in NU(NCr)-Foxn1 mouse assessed as increase in fibrosis at 1 to 4 ug/g administered for three consecutive days with 1 day interval for four cycle by hematoxylin and eosin staining based microscopic analysis; format: functional, cell-based
[32] = Toxicity in NU(NCr)-Foxn1 mouse xenografted with WM164 assessed as weight loss at 1 to 4 ug/g administered for three consecutive days with 1 day interval for four cycle; settings: in vivo
WM164 [33] = assay: Antitumour activity against human WM164 cells xenografted in NU(NCr)-Foxn1 mouse assessed as decrease in tumour size at 2 ug/g administered for three consecutive days with 1 day interval for four cycle; format: functional, cell-based

## CC(C)=CC[C@@H](OC(=O)C=C(C)C)C1=CC(=O)c2c(O)ccc(O)c2C1=O [DIMETHYLACRYLSHIKONIN]
MUGMel2 [1]
  IC50: 2300 nM
WM793 [2]
  IC50: 800 nM
MUGMel1 [3]
  Activity: 2.36%
MUGMel2 [4]
  Activity: 75.52%
MUGMel2 [5]
  Activity: 13.53%
WM164 [6]
  Activity: 12.85%
WM164 [7]
  Activity: 11.6%
WM793 [8]
  Activity: 83.29%
WM793 [9]
  Activity: 13.71%
B16-F0
  IC50: 1.2 to 5.1 µM
WM793 [10]
  Activity: Active
MUGMel1 [11]
  Activity: Active
WM164 [12]
  fold change (FC): 1.6
MUGMel1 [13]
  fold change (FC): 2.4
SBcl2 [14]
  Activity: 50%
WM164 [15]
  Activity: 60%
WM164 [16]
  Activity: Active
SBcl2 [17]
  Activity: Active
WM164 [18]
  Activity: Active
MUGMel1 [19]
  Activity: Active
WM164 [20]
  Activity: inactive
SBcl2 [21]
  Activity: inactive
MUGMel1 [22]
  Activity: inactive
WM164 [23]
  Activity: Active
SBcl2 [24]
  Activity: Active
SBcl2 [25]
  Activity: inactive
WM164 [26]
  Activity: Active
WM793 [27]
  Activity: inactive
MUGMel2 [28]
  Activity: inactive
MUGMel2 [29]
  Activity: inactive
MUGMel1 [30]
  Activity: inactive
WM164 [31]
  Activity: Active
[32]
  Activity: Non-Toxic
WM164 [33]
  Activity: inactive
